According to ChEMBL document CHEMBL1201862, “PubChem BioAssay data set” (2004):
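Values below derive from 48-hour exposures of cells grown in 96-well plates, with endpoints linearly interpolated between the two concentrations bracketing the appropriate inhibition level. GI50: concentration for 50% inhibition of growth.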 Active and inactive are the calls of the source. No stated cut-off is given here; in the data, active = GI50 up to about 1.1 µM and inactive = higher.

Columns and labels:
Assay in all cases: growth of human tumour cells (NCI), 48 h
[1] = system: DMS-114
[2] = system: SNB-78
[3] = system: DMS-273
[4] = system: M19-MEL
[5] = system: LXFL 529
[6] = system: RXF 631
[7] = system: HOP-18
[8] = system: DLD-1
[9] = system: XF498

| SMILES | GI50 [1] | GI50 [2] | GI50 [3] | GI50 [4] | GI50 [5] | GI50 [6] | GI50 [7] | GI50 [8] | GI50 [9] |
| --- | --- | --- | --- | --- | --- | --- | --- | --- | --- |
| Cc1cccc(C)c1N1C(=O)C(=O)C(c2nc3ccccc3s2)/C(=N\N)C1=O (centres undefined) | 60.8 µM (inactive) | > 100 µM (inactive) | > 100 µM (inactive) | > 100 µM (inactive) | 40.8 µM (inactive) | > 100 µM (inactive) | 49.7 µM (inactive) | > 100 µM (inactive) | – |
| CN(C)CCC[N+]1=Nc2cccc3cccc(c23)N1 | 60.3 µM (inactive) | > 100 µM (inactive) | 18.8 µM (inactive) | 48.2 µM (inactive) | 49.8 µM (inactive) | > 100 µM (inactive) | > 100 µM (inactive) | 17.5 µM (inactive) | > 100 µM (inactive) |
| CCOC(=O)C1N(S(=O)(=O)c2ccc(C)cc2)CCC12c1ccccc1NC2c1ccc(OC)c(OC)c1 (centres undefined) | > 100 µM (inactive) | > 100 µM (inactive) | > 100 µM (inactive) | > 100 µM (inactive) | > 100 µM (inactive) | – | – | > 100 µM (inactive) | 79.8 µM (inactive) |
| Cc1nc2cc(N)c(F)cc2[nH]1 | > 100 µM (inactive) | > 100 µM (inactive) | > 100 µM (inactive) | > 100 µM (inactive) | > 100 µM (inactive) | – | – | > 100 µM (inactive) | > 100 µM (inactive) |
| O=C1C=C(O)C(=Cc2c(O)cc(O)cc2O)C(O)=C1 | > 100 µM (inactive) | > 100 µM (inactive) | > 100 µM (inactive) | > 100 µM (inactive) | > 100 µM (inactive) | > 100 µM (inactive) | > 100 µM (inactive) | > 100 µM (inactive) | > 100 µM (inactive) |
| CCCC(=O)C(CC)/C(CCC(=O)N(Cc1ccccc1)Cc1ccccc1)=N/NC(=O)C[N+](C)(C)C (centres undefined) | > 100 µM (inactive) | > 100 µM (inactive) | > 100 µM (inactive) | > 100 µM (inactive) | > 100 µM (inactive) | – | > 100 µM (inactive) | > 100 µM (inactive) | 65.2 µM (inactive) |
| CC(C)=CC(=O)CC(=O)C(=O)NCCNC(=O)C(=O)CC(=O)C=C(C)C | > 50 µM (inactive) | > 50 µM (inactive) | > 50 µM (inactive) | > 50 µM (inactive) | > 50 µM (inactive) | – | > 50 µM (inactive) | > 50 µM (inactive) | > 50 µM (inactive) |
| O=C(CCC(=O)Nc1ccc(Cl)cc1)CC(=O)c1ccc2ccccc2c1 | > 100 µM (inactive) | > 100 µM (inactive) | > 100 µM (inactive) | > 100 µM (inactive) | > 100 µM (inactive) | > 100 µM (inactive) | > 100 µM (inactive) | > 100 µM (inactive) | – |
| CC#COP(=O)(OCC)OCC | > 100 µM (inactive) | > 100 µM (inactive) | – | > 100 µM (inactive) | > 100 µM (inactive) | > 100 µM (inactive) | – | > 100 µM (inactive) | – |
| COC(=O)c1nn(-c2ccccc2)c(=O)cc1N=[N+]=[N-] | > 100 µM (inactive) | > 100 µM (inactive) | > 100 µM (inactive) | > 100 µM (inactive) | > 100 µM (inactive) | – | – | – | > 100 µM (inactive) |
| O=C(Nc1nc2ncn(CCO)c2c(=S)[nH]1)c1ccccc1 | > 100 µM (inactive) | > 100 µM (inactive) | > 100 µM (inactive) | > 100 µM (inactive) | > 100 µM (inactive) | > 10 µM (inactive) | > 100 µM (inactive) | > 100 µM (inactive) | > 100 µM (inactive) |
| Cc1ccc(C2=NO[C@@H]3C(=O)N(c4ccc(Cc5ccc(N6C(=O)[C@H]7C(c8ccc(C)cc8)=NO[C@H]7C6=O)cc5)cc4)C(=O)[C@H]23)cc1 | > 100 µM (inactive) | > 100 µM (inactive) | > 100 µM (inactive) | > 100 µM (inactive) | > 100 µM (inactive) | > 100 µM (inactive) | > 100 µM (inactive) | > 100 µM (inactive) | > 100 µM (inactive) |
| O=C1NC2=C(CCCCC/C2=N\O)C12CCCCCC2 | > 100 µM (inactive) | > 100 µM (inactive) | > 100 µM (inactive) | > 100 µM (inactive) | > 100 µM (inactive) | – | > 100 µM (inactive) | > 100 µM (inactive) | > 100 µM (inactive) |
| C/C(=C1/CCCC2(N=NCC2c2ccccc2)C1=O)c1ccccc1 (centres undefined) | 9.16 µM (inactive) | 25.4 µM (inactive) | 15.9 µM (inactive) | 22.3 µM (inactive) | 17.3 µM (inactive) | – | 51.1 µM (inactive) | 38.3 µM (inactive) | 17.4 µM (inactive) |
| Cc1ccccc1Cn1nc2ccccc2cc1=O | > 100 µM (inactive) | > 100 µM (inactive) | > 100 µM (inactive) | > 100 µM (inactive) | – | – | > 100 µM (inactive) | > 100 µM (inactive) | > 100 µM (inactive) |
| Fc1cccc2c1cc1ccc3cccc4ccc2c1c34 | – | > 100 µM (inactive) | > 100 µM (inactive) | > 100 µM (inactive) | > 100 µM (inactive) | – | > 100 µM (inactive) | > 100 µM (inactive) | > 100 µM (inactive) |
| C/C(=N\NC(N)=S)c1ccc(C)cc1C | – | > 100 µM (inactive) | > 100 µM (inactive) | 36.9 µM (inactive) | 39.1 µM (inactive) | 91 µM (inactive) | > 100 µM (inactive) | 56.8 µM (inactive) | 43.1 µM (inactive) |
| C1OC1CN1CCN(CC2CO2)CC1 (centres undefined) | 12.8 µM (inactive) | > 100 µM (inactive) | 16.1 µM (inactive) | > 100 µM (inactive) | > 100 µM (inactive) | – | 66.7 µM (inactive) | > 100 µM (inactive) | > 100 µM (inactive) |
| CC(C)NC(C)C(C)c1ccccc1 (centres undefined) | > 100 µM (inactive) | – | > 100 µM (inactive) | > 100 µM (inactive) | > 100 µM (inactive) | – | – | > 100 µM (inactive) | > 100 µM (inactive) |
| C#CCNC(=O)NCCCC(NC(C)=O)C(=O)NCc1ccccc1 (centres undefined) | > 100 µM (inactive) | > 100 µM (inactive) | – | > 100 µM (inactive) | > 100 µM (inactive) | > 100 µM (inactive) | > 100 µM (inactive) | > 100 µM (inactive) | – |
| CCCC(=O)Nc1ccc(O)c2c1C1CCCCCC21 (centres undefined) | 50.2 µM (inactive) | > 100 µM (inactive) | > 100 µM (inactive) | > 100 µM (inactive) | > 100 µM (inactive) | – | > 100 µM (inactive) | – | 65 µM (inactive) |
| COC1[C@H](NC(=O)OC(C)(C)C)C(=O)N1Cc1ccccc1 (some centres undefined) | > 100 µM (inactive) | > 100 µM (inactive) | > 100 µM (inactive) | > 100 µM (inactive) | > 100 µM (inactive) | – | – | > 100 µM (inactive) | > 100 µM (inactive) |
| COc1cc2c(c(OC)c1OC)-c1ccc(SC)c(=O)cc1[C@@H](NCc1ccc(F)cc1)CC2 | – | < 0.0075 µM (active) | < 0.0075 µM (active) | – | < 0.0075 µM (active) | < 0.0075 µM (active) | 9.1 µM (inactive) | < 0.0075 µM (active) | < 0.0075 µM (active) |
